Test results: ChEMBL document CHEMBL1201862, “PubChem BioAssay data set” (2004)
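Following 48 hours of exposure in 96-well plates, responses at five concentrations were used to interpolate endpoints linearly. Abbreviation: GI50, concentration required for 50% inhibition of growth.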 Activity calls are given as the source filed them. Cut-off read from the data, not from the text of the source: active = GI50 up to about 1.1 µM and inactive = higher.

Tests used:
Experiment in all cases: NCI tumour cell line growth inhibition, 48 h
SF-268 = system: SF-268
SNB-19 = system: SNB-19
KM12 = system: KM12
HCC 2998 = system: HCC 2998
OVCAR-3 = system: OVCAR-3
OVCAR-8 = system: OVCAR-8
NCI-H23 = system: NCI-H23
EKVX = system: EKVX
HCT-116 = system: HCT-116
PC-3 = system: PC-3
SN12C = system: SN12C
UACC-257 = system: UACC-257
Malme-3M = system: Malme-3M
SK-MEL-28 = system: SK-MEL-28
MCF7 = system: MCF7
HOP-62 = system: HOP-62
SNB-75 = system: SNB-75
SK-MEL-5 = system: SK-MEL-5
MDA-MB-435 = system: MDA-MB-435
MDA-MB-231 = system: MDA-MB-231
NCI/ADR-RES = system: NCI/ADR-RES
HOP-92 = system: HOP-92
RXF 393 = system: RXF 393
SF-295 = system: SF-295
SR = system: SR
RPMI-8226 = system: RPMI-8226
M14 = system: M14
BT-549 = system: BT-549
NCI-H226 = system: NCI-H226
UACC-62 = system: UACC-62
MOLT-4 = system: MOLT-4
TK-10 = system: TK-10
NCI-H522 = system: NCI-H522
K562 = system: K562
HT-29 = system: HT-29
HL-60 = system: HL-60
SF-539 = system: SF-539
T47D = system: T47D
IGROV-1 = system: IGROV-1
COLO 205 = system: COLO 205
ACHN = system: ACHN
786-0 = system: 786-0
Hs-578T = system: Hs-578T
MDA-N = system: MDA-N
SW-620 = system: SW-620
OVCAR-4 = system: OVCAR-4
HCT-15 = system: HCT-15
CCRF-CEM = system: CCRF-CEM
A549 = system: A549
NCI-H460 = system: NCI-H460
U-251 = system: U-251
DU-145 = system: DU-145
OVCAR-5 = system: OVCAR-5
SK-MEL-2 = system: SK-MEL-2
UO-31 = system: UO-31
CAKI-1 = system: CAKI-1
SK-OV-3 = system: SK-OV-3
LOX IMVI = system: LOX IMVI
A498 = system: A498

## CCc1nc2c(n1CC)C(=O)c1ccccc1C2=O
SF-268
  GI50: 69 µM (inactive)
SNB-19
  GI50: 45.6 µM (inactive)
KM12
  GI50: 45.3 µM (inactive)
HCC 2998
  GI50: 42.1 µM (inactive)
OVCAR-3
  GI50: 18.7 µM (inactive)
OVCAR-8
  GI50: 32.8 µM (inactive)
NCI-H23
  GI50: 46.8 µM (inactive)
EKVX
  GI50: 91.6 µM (inactive)
HCT-116
  GI50: > 10 µM (inactive)
PC-3
  GI50: 18.8 µM (inactive)
SN12C
  GI50: 27.8 µM (inactive)
UACC-257
  GI50: 25.4 µM (inactive)
Malme-3M
  GI50: 15.5 µM (inactive)
SK-MEL-28
  GI50: 56.1 µM (inactive)
MCF7
  GI50: 49.1 µM (inactive)
HOP-62
  GI50: 42.5 µM (inactive)
SNB-75
  GI50: 20.7 µM (inactive)
SK-MEL-5
  GI50: > 10 µM (inactive)
MDA-MB-435
  GI50: 18.3 µM (inactive)
MDA-MB-231
  GI50: 16.9 µM (inactive)
NCI/ADR-RES
  GI50: 31.2 µM (inactive)
HOP-92
  GI50: 63.2 µM (inactive)
RXF 393
  GI50: 19.8 µM (inactive)
SF-295
  GI50: 48.1 µM (inactive)
SR
  GI50: 37.4 µM (inactive)
RPMI-8226
  GI50: > 100 µM (inactive)
M14
  GI50: 23.7 µM (inactive)
BT-549
  GI50: 17.2 µM (inactive)
NCI-H226
  GI50: 28.6 µM (inactive)
UACC-62
  GI50: 28.8 µM (inactive)
MOLT-4
  GI50: 33.9 µM (inactive)
TK-10
  GI50: 22.1 µM (inactive)
NCI-H522
  GI50: 31.6 µM (inactive)
K562
  GI50: 44.5 µM (inactive)
HT-29
  GI50: 24.9 µM (inactive)
HL-60
  GI50: 32.7 µM (inactive)
SF-539
  GI50: 44.4 µM (inactive)
T47D
  GI50: 18.3 µM (inactive)
IGROV-1
  GI50: 24.5 µM (inactive)
COLO 205
  GI50: 16.8 µM (inactive)
ACHN
  GI50: 39 µM (inactive)
786-0
  GI50: > 100 µM (inactive)
Hs-578T
  GI50: 67.6 µM (inactive)
MDA-N
  GI50: > 10 µM (inactive)
SW-620
  GI50: 26.7 µM (inactive)
OVCAR-4
  GI50: 34.9 µM (inactive)
HCT-15
  GI50: 38.3 µM
CCRF-CEM
  GI50: 45.7 µM (inactive)
A549
  GI50: 43.2 µM (inactive)
NCI-H460
  GI50: 39.1 µM (inactive)
U-251
  GI50: 44.2 µM (inactive)
DU-145
  GI50: 66.5 µM (inactive)
OVCAR-5
  GI50: 47.2 µM (inactive)

## CC1(C)C(=O)C(C)(C)C12SSC1(S2)C(C)(C)C(=O)C1(C)C
SF-268
  GI50: > 100 µM (inactive)
SNB-19
  GI50: > 100 µM (inactive)
KM12
  GI50: > 100 µM (inactive)
SK-MEL-2
  GI50: > 100 µM (inactive)
HCC 2998
  GI50: > 100 µM (inactive)
OVCAR-3
  GI50: > 100 µM (inactive)
OVCAR-8
  GI50: > 100 µM (inactive)
NCI-H23
  GI50: > 100 µM (inactive)
EKVX
  GI50: > 100 µM (inactive)
UO-31
  GI50: > 100 µM (inactive)
HCT-116
  GI50: > 100 µM (inactive)
CAKI-1
  GI50: > 100 µM (inactive)
PC-3
  GI50: 84.5 µM (inactive)
SN12C
  GI50: > 100 µM (inactive)
UACC-257
  GI50: > 100 µM (inactive)
Malme-3M
  GI50: 48.2 µM (inactive)
SK-MEL-28
  GI50: > 100 µM (inactive)
MCF7
  GI50: > 100 µM (inactive)
HOP-62
  GI50: > 100 µM (inactive)
SNB-75
  GI50: > 100 µM (inactive)
SK-MEL-5
  GI50: > 100 µM (inactive)
MDA-MB-435
  GI50: > 100 µM (inactive)
SK-OV-3
  GI50: > 100 µM (inactive)
MDA-MB-231
  GI50: > 100 µM (inactive)
NCI/ADR-RES
  GI50: 77.1 µM (inactive)
HOP-92
  GI50: > 100 µM (inactive)
SF-295
  GI50: > 100 µM (inactive)
SR
  GI50: > 100 µM (inactive)
LOX IMVI
  GI50: > 100 µM (inactive)
RPMI-8226
  GI50: 65.9 µM (inactive)
M14
  GI50: > 100 µM (inactive)
BT-549
  GI50: > 100 µM (inactive)
NCI-H226
  GI50: 42.6 µM (inactive)
UACC-62
  GI50: > 100 µM (inactive)
MOLT-4
  GI50: 71.4 µM (inactive)
A498
  GI50: > 100 µM (inactive)
TK-10
  GI50: > 100 µM (inactive)
K562
  GI50: > 100 µM (inactive)
HT-29
  GI50: > 100 µM (inactive)
HL-60
  GI50: 2.41 µM (inactive)
SF-539
  GI50: > 100 µM (inactive)
T47D
  GI50: > 100 µM (inactive)
IGROV-1
  GI50: > 100 µM (inactive)
COLO 205
  GI50: 67 µM (inactive)
ACHN
  GI50: > 100 µM (inactive)
786-0
  GI50: > 100 µM (inactive)
Hs-578T
  GI50: > 100 µM (inactive)
MDA-N
  GI50: > 100 µM (inactive)
SW-620
  GI50: > 100 µM (inactive)
OVCAR-4
  GI50: > 100 µM (inactive)
HCT-15
  GI50: > 100 µM
A549
  GI50: 64.9 µM (inactive)
NCI-H460
  GI50: > 100 µM (inactive)
U-251
  GI50: > 100 µM (inactive)
DU-145
  GI50: > 100 µM (inactive)
OVCAR-5
  GI50: > 100 µM (inactive)

## C/C(=N\NC(=S)Nc1ccccc1)c1nc2cccnc2[nH]1
SF-268
  GI50: 0.583 µM (active)
SNB-19
  GI50: 5.96 µM (inactive)
KM12
  GI50: 7.08 µM (inactive)
SK-MEL-2
  GI50: 16.9 µM (inactive)
HCC 2998
  GI50: 2.91 µM (inactive)
OVCAR-3
  GI50: 0.456 µM (active)
OVCAR-8
  GI50: 2.76 µM (inactive)
NCI-H23
  GI50: 9.53 µM (inactive)
EKVX
  GI50: 0.649 µM (active)
UO-31
  GI50: 1.38 µM (inactive)
HCT-116
  GI50: 1.63 µM (inactive)
CAKI-1
  GI50: 4.63 µM (inactive)
PC-3
  GI50: 3.4 µM (inactive)
SN12C
  GI50: 4.33 µM (inactive)
UACC-257
  GI50: 2.18 µM (inactive)
Malme-3M
  GI50: 2.18 µM (inactive)
SK-MEL-28
  GI50: 0.706 µM (active)
MCF7
  GI50: 0.338 µM (active)
HOP-62
  GI50: 8.47 µM (inactive)
SNB-75
  GI50: 12.2 µM (inactive)
SK-MEL-5
  GI50: 2.69 µM (inactive)
MDA-MB-435
  GI50: 3.7 µM (inactive)
SK-OV-3
  GI50: 5.36 µM (inactive)
MDA-MB-231
  GI50: 1.06 µM (active)
NCI/ADR-RES
  GI50: 3.3 µM (inactive)
HOP-92
  GI50: 12.9 µM (inactive)
SF-295
  GI50: 3.46 µM (inactive)
SR
  GI50: 0.766 µM (active)
LOX IMVI
  GI50: 2.31 µM (inactive)
RPMI-8226
  GI50: 3.75 µM (inactive)
M14
  GI50: 3.58 µM (inactive)
BT-549
  GI50: 5.26 µM (inactive)
NCI-H226
  GI50: 2.59 µM (inactive)
UACC-62
  GI50: 2.85 µM (inactive)
MOLT-4
  GI50: 0.706 µM (active)
A498
  GI50: 8.17 µM (inactive)
NCI-H522
  GI50: 2.18 µM (inactive)
K562
  GI50: 3.35 µM (inactive)
HT-29
  GI50: 0.826 µM (active)
HL-60
  GI50: 2.92 µM (inactive)
SF-539
  GI50: 1.46 µM (inactive)
T47D
  GI50: 0.193 µM (active)
IGROV-1
  GI50: 3.48 µM (inactive)
COLO 205
  GI50: 3.78 µM (inactive)
ACHN
  GI50: 1.44 µM (inactive)
786-0
  GI50: 2.54 µM (inactive)
Hs-578T
  GI50: 14 µM (inactive)
MDA-N
  GI50: 5.65 µM (inactive)
SW-620
  GI50: 4.97 µM (inactive)
OVCAR-4
  GI50: 0.927 µM (active)
HCT-15
  GI50: 2.66 µM
CCRF-CEM
  GI50: 0.389 µM (active)
A549
  GI50: 3.31 µM (inactive)
NCI-H460
  GI50: 1.54 µM (inactive)
U-251
  GI50: 2.49 µM (inactive)
DU-145
  GI50: 2.84 µM (inactive)
OVCAR-5
  GI50: 4.79 µM (inactive)
